Test results taken from ChEMBL document CHEMBL1140238, “Synthesis of selective SRPK-1 inhibitors: novel tricyclic quinoxaline derivatives” (Bioorg Med Chem Lett, 2005).

Experiments:
[1] = Inhibitory activity against Platelet-derived growth factor receptor kinase
[2] = target: Proto-oncogene tyrosine-protein kinase Src (Homo sapiens) (UniProt P12931); assay: In vitro percent inhibition of c-Src tyrosine kinase at 10 uM concentration of compound dissolved in 100% DMSO using 5''-[gamma-33P]-triphosphate
[3] = target: Mitogen-activated protein kinase 3 (Homo sapiens) (UniProt P27361); assay: In vitro percent inhibition of Mitogen-activated protein kinase 3 at 10 uM concentration of compound dissolved in 100% DMSO using 5''-[gamma-33P]-triphosphate
[4] = target: Ribosomal protein S6 kinase (P70S6K) (Homo sapiens) (UniProt Q9UBS0+P23443); assay: In vitro percent inhibition of Ribosomal protein S6 kinase at 10 uM concentration of compound dissolved in 100% DMSO using 5''-[gamma-33P]-triphosphate; type: protein-complex assay
[5] = target: Rho-associated protein kinase 2 (Homo sapiens) (UniProt O75116); assay: In vitro percent inhibition of Protein kinase ROCK2 at 10 uM concentration of compound dissolved in 100% DMSO using 5''-[gamma-33P]-triphosphate
[6] = In vitro percent inhibition of Cyclin-dependent kinase 2-cyclin A at 10 uM concentration of compound dissolved in 100% DMSO using 5''-[gamma-33P]-triphosphate
[7] = target: Platelet-derived growth factor receptor beta (Homo sapiens) (UniProt P09619); assay: In vitro percent inhibition of Platelet-derived growth factor receptor, beta polypeptide at 10 uM concentration of compound dissolved in 100% DMSO using 5''-[gamma-33P]-triphosphate
[8] = Partition coefficient (logP); type: physicochemical; conditions: octanol/water
[9] = target: Mitogen-activated protein kinase 8 (Homo sapiens) (UniProt P45983); assay: In vitro percent inhibition of c-Jun N-terminal kinase 1-alpha 1 at 10 uM concentration of compound dissolved in 100% DMSO using 5''-[gamma-33P]-triphosphate
[10] = target: T1, Inhibitor of nuclear factor kappa-B kinase subunit beta (Homo sapiens) (UniProt O14920); assay: In vitro percent inhibition of I-kappa-B-kinase beta at 10 uM concentration of compound dissolved in 100% DMSO using 5''-[gamma-33P]-triphosphate
T1 sequence (whole entry): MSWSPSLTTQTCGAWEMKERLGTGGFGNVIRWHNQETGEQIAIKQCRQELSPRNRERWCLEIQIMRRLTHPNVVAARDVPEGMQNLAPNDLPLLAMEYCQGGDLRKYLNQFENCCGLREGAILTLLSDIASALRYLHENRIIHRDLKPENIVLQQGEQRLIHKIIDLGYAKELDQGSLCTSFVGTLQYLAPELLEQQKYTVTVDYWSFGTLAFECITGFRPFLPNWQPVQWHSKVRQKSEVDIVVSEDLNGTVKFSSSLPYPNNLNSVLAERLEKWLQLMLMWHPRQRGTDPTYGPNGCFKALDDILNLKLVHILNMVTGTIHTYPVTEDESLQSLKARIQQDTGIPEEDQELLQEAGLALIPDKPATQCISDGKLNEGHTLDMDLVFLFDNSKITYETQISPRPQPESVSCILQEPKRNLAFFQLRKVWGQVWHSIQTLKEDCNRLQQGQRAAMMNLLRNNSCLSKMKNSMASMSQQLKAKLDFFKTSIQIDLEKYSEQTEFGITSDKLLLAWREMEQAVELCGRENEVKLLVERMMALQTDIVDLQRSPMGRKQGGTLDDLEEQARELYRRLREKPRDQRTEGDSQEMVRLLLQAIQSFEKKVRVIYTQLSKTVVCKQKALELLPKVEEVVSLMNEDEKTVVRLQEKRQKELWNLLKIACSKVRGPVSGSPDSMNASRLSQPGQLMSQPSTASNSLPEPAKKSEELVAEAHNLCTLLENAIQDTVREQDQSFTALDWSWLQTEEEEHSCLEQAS

[11] = target: Tyrosine-protein kinase Lck (Homo sapiens) (UniProt P06239); assay: In vitro percent inhibition of p56 Lck tyrosine kinase at 10 uM concentration of compound dissolved in 100% DMSO using 5''-[gamma-33P]-triphosphate
[12] = In vitro percent inhibition of Ribosomal S6 kinase 1 at 10 uM concentration of compound dissolved in 100% DMSO using 5''-[gamma-33P]-triphosphate
[13] = target: Mast/stem cell growth factor receptor Kit (Homo sapiens) (UniProt P10721); assay: In vitro percent inhibition of v-kit Hardy-Zuckerman 4 feline sarcoma viral oncogene homolog at 10 uM concentration of compound dissolved in 100% DMSO using 5''-[gamma-33P]-triphosphate
[14] = target: Hepatocyte growth factor receptor (Homo sapiens) (UniProt P08581); assay: In vitro percent inhibition of Met proto-oncogene tyrosine kinase at 10 uM concentration of compound dissolved in 100% DMSO using 5''-[gamma-33P]-triphosphate
[15] = target: T2, Tyrosine-protein kinase transforming protein Abl (Abelson murine leukemia virus) (UniProt P00521); assay: In vitro percent inhibition of v-Abl tyrosine kinase at 10 uM concentration of compound dissolved in 100% DMSO using 5''-[gamma-33P]-triphosphate
T2 sequence (whole entry): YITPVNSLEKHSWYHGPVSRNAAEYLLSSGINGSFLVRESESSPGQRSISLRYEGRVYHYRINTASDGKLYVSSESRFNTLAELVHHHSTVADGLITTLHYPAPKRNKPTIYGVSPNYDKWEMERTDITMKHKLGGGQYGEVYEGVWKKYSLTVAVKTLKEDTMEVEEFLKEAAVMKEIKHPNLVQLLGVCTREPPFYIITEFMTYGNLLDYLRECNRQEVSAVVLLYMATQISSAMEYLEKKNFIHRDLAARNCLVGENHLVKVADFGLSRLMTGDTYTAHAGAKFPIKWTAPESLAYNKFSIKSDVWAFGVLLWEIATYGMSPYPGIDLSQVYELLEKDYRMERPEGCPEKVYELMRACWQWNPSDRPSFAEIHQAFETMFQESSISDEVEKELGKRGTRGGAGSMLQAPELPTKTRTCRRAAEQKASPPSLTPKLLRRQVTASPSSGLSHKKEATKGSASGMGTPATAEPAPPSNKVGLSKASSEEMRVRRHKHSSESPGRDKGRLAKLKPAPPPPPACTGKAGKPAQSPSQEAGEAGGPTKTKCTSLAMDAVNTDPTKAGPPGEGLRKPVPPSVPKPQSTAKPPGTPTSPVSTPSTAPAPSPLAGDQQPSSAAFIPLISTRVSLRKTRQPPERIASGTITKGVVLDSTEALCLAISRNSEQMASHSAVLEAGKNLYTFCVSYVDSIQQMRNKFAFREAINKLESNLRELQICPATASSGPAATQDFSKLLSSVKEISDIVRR

[16] = target: Insulin receptor (Homo sapiens) (UniProt P06213); assay: In vitro percent inhibition of Insulin receptor at 10 uM concentration of compound dissolved in 100% DMSO using 5''-[gamma-33P]-triphosphate
[17] = target: Epidermal growth factor receptor (Homo sapiens) (UniProt P00533); conditions: 10 uM
[18] = target: Casein kinase I isoform alpha (Homo sapiens) (UniProt P48729); assay: In vitro percent inhibition of Casein kinase 1 alpha at 10 uM concentration of compound dissolved in 100% DMSO using 5''-[gamma-33P]-triphosphate
[19] = target: RAF proto-oncogene serine/threonine-protein kinase (Homo sapiens) (UniProt P04049); assay: In vitro percent inhibition of RAF proto-oncogene serine/threonine-protein kinase at 10 uM concentration of compound dissolved in 100% DMSO using 5''-[gamma-33P]-triphosphate
SRPK1 (Homo sapiens) = assay: In vitro inhibition of SR protein kinase 1 by compound dissolved in 100% DMSO using 5''-[gamma-33P]-triphosphate; n.a. - not active

Mitogen-activated protein kinase 8 (Homo sapiens), sequence (P45983 whole entry): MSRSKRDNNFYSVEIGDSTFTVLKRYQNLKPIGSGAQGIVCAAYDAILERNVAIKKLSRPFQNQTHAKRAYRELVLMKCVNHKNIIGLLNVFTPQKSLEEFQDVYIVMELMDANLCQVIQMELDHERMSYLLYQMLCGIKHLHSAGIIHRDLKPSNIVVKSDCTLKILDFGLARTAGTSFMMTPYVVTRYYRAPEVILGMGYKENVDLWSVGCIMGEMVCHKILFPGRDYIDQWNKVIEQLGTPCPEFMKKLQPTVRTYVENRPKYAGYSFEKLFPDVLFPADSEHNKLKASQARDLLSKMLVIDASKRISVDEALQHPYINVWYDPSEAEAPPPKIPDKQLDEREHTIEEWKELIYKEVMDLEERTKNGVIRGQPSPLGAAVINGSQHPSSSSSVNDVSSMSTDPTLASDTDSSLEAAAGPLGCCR
Mast/stem cell growth factor receptor Kit (Homo sapiens), sequence (P10721 whole entry): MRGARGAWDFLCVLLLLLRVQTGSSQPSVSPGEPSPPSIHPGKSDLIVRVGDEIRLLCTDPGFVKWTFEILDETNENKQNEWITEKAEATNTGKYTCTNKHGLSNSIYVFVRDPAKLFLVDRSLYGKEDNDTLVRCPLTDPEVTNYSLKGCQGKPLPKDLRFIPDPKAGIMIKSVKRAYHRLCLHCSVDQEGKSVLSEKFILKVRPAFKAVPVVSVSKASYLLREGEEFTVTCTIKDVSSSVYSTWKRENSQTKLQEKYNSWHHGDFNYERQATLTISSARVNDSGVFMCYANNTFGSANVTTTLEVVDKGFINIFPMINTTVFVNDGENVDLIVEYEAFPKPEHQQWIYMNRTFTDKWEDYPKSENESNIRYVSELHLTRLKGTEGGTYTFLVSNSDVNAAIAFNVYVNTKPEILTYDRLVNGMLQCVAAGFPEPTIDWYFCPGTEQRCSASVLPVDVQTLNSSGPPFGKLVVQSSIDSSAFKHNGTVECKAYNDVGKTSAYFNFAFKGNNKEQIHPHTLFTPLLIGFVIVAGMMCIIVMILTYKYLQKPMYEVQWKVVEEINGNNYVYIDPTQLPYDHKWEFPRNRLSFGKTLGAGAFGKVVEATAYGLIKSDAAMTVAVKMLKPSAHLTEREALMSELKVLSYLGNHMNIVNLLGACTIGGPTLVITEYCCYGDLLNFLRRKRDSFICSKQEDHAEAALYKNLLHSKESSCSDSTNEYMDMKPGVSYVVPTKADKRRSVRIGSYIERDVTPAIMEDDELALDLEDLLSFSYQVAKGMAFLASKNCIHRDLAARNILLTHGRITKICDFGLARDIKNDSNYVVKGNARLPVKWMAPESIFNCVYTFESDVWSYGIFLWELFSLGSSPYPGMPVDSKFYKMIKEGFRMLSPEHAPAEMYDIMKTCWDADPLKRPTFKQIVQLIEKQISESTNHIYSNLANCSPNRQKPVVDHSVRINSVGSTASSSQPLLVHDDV
Insulin receptor (Homo sapiens), sequence (P06213 28-758 limits assumed): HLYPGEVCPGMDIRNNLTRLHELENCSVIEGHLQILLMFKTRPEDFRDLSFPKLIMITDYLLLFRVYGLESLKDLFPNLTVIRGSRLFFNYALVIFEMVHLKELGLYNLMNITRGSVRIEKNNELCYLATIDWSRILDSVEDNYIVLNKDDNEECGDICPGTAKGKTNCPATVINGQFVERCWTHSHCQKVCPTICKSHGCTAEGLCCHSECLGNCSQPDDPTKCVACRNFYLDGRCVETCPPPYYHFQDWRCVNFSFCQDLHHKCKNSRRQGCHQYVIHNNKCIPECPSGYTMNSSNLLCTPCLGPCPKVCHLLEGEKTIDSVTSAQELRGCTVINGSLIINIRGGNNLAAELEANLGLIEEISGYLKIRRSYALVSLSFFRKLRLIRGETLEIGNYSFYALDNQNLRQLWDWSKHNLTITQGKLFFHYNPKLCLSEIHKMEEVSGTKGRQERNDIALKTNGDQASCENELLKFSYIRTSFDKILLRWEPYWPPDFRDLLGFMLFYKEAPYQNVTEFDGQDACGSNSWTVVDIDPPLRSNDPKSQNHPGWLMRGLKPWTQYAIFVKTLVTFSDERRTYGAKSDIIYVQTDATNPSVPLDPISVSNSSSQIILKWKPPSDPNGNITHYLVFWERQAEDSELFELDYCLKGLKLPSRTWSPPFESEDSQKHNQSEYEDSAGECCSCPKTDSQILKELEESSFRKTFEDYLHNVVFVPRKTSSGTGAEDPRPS
Insulin receptor (Homo sapiens), sequence (P06213 763-1382 limits assumed): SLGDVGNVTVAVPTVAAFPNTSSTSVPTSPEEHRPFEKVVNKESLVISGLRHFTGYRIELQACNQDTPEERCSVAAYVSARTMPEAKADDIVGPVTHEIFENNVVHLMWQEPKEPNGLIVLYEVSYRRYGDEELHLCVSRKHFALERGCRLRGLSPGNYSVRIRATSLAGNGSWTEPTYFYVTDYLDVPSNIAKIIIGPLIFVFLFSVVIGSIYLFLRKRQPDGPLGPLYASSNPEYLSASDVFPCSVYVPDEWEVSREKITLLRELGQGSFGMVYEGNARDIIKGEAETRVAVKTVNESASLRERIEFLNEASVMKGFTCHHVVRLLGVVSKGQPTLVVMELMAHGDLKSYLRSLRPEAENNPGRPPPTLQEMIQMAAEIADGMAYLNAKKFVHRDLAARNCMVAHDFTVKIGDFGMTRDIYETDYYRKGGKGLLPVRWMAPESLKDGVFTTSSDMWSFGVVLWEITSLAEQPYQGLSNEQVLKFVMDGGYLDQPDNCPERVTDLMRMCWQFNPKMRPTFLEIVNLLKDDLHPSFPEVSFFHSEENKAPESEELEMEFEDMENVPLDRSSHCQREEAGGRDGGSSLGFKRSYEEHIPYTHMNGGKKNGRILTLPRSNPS
Epidermal growth factor receptor (Homo sapiens), sequence (P00533 whole entry, canonical isoform): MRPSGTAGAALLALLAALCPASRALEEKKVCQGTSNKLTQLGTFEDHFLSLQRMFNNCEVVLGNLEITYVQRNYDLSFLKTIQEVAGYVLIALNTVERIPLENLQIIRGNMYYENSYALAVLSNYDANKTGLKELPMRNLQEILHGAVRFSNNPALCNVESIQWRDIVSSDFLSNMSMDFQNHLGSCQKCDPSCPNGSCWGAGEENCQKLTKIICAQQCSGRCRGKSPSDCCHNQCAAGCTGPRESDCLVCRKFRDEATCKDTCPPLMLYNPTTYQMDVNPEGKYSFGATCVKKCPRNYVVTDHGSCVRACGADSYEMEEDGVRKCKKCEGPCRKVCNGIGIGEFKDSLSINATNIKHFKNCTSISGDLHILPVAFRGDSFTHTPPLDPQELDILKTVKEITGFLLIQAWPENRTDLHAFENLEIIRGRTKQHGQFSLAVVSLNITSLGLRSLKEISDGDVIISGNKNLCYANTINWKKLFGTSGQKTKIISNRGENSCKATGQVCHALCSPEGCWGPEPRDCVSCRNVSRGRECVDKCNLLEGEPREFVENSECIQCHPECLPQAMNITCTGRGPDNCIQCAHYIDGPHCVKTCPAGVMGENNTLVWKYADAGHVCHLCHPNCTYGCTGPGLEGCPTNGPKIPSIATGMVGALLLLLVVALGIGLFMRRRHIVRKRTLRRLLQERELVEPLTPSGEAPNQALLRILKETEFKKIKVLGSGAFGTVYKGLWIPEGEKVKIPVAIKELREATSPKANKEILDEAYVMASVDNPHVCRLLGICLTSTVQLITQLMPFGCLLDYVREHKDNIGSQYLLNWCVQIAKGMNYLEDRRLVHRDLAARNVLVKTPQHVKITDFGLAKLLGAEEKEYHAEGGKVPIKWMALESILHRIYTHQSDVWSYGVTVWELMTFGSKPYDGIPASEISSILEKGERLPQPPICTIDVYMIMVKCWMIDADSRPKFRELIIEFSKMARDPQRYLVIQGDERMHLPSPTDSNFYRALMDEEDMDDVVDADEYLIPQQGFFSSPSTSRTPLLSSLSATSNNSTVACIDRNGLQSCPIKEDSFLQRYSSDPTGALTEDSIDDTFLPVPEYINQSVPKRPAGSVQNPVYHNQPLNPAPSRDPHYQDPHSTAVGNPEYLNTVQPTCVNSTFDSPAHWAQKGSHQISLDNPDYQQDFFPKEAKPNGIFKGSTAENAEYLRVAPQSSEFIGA
Tyrosine-protein kinase Lck (Homo sapiens), sequence (P06239 2-509 limits assumed): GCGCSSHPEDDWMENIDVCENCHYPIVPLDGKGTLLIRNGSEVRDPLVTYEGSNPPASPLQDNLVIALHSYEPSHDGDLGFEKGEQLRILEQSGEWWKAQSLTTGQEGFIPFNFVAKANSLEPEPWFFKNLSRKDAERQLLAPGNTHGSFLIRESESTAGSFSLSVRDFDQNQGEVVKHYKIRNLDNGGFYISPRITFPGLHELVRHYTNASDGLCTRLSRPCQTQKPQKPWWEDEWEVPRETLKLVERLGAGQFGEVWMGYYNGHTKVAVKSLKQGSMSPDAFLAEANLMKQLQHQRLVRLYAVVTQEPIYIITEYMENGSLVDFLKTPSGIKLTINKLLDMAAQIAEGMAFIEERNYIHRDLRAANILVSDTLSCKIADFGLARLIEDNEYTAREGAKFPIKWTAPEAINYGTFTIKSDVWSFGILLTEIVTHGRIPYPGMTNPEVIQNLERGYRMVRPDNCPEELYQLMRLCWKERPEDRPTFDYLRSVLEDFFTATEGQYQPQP
Proto-oncogene tyrosine-protein kinase Src (Homo sapiens), sequence (P12931 2-536 limits assumed): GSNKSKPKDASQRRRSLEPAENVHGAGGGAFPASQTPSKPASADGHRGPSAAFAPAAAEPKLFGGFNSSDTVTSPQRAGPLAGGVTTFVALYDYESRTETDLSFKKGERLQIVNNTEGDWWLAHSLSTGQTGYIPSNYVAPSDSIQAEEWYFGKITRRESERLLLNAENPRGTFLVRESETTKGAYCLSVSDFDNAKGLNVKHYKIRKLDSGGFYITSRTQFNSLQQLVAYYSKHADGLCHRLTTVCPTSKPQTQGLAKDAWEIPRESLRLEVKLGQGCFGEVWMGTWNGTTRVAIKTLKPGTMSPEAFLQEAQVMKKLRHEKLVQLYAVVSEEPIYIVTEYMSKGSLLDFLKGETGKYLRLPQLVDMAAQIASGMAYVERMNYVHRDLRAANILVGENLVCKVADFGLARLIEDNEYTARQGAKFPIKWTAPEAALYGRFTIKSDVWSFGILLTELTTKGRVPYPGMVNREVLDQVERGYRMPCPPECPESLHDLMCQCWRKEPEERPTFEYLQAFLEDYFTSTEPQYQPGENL

| inhibition [2] | inhibition [3] | inhibition [4] | inhibition [5] | inhibition [6] | inhibition [7] | logP [8] | inhibition [9] | inhibition [10] | inhibition [11] | inhibition [12] | inhibition [13] | inhibition [14] | inhibition [15] | inhibition [16] | inhibition [17] | inhibition [18] | inhibition [19] | IC50 (SRPK1 (Homo sapiens)) | Compound | IC50 [1] |
| --- | --- | --- | --- | --- | --- | --- | --- | --- | --- | --- | --- | --- | --- | --- | --- | --- | --- | --- | --- | --- |
|  |  |  |  |  |  |  |  |  |  |  |  |  |  |  |  |  |  |  | c1ccc(-c2cnc3cc4ccccc4cc3n2)cc1 | 900 nM |
| 75% | 21% | 2% | 32% | -7% | 24% | 5 | 15% | 22% | 39% | 17% | 22% | 27% | 10% | 34% | 26% | -5% | -5% | Not Active | c1csc(-c2nc3cc4c(cc3nc2-c2cccs2)OCCCO4)c1 |  |
